# What was measured:
# FSDNA [1] = assay: Isothermal titration calorimetry of DNA binding, two types of independent binding sites; parameters: species or system fish; details: 25 mM MOPS, 5 mM NaCl, pH 7.0, 25 °C; for K A1 / n A1: high-affinity site; for K B1 / n B1: low-affinity site
# Description: Cooperative self‐aggregation of DNA binders in combination with DNA binding makes data analysis complex because of the presence of coupled equilibria.^[ [46] ^] In the case of aggregation of charged species, the aggregation process tends to be very sensitive to salt concentration. We therefore studied self‐aggregation in buffer at a lower salt concentration (25 mM MOPS, pH 7.0, 5 mM NaCl) and found no indications of self‐aggregation. We therefore opted to carry out the ITC experiments in a buffer with a reduced salt concentration of 5 mM. Titrations were carried out in two parts, viz. a first titration focussing on the first binding event followed by a second titration focussing on the second binding event (Figures S23–25 with complex and DNA concentrations for each individual titration in Table S5). Figures S23 and S25 clearly show two binding events, as anticipated from UV‐visible titrations.
# We analyzed the data using a model involving two types of independent binding sites, correcting for dilution heat effects in our custom data analysis software I2CITC^[ [45], [47] ^] […] The complexes also bind to a second lower affinity type of binding site with a size of approximately 2–3 basepairs with an affinity K B1 of the order of 10^5 M^−1 in an exothermic process. Based on the combination of binding site size and the exothermic interaction, we attribute the low‐affinity binding event to non‐specific binding of the cationic complexes to negatively charged DNA, supported by hydrophobic interactions between complexes. The binding site size of the higher affinity binding site exceeds the dimensions of the complexes of around five base pairs, as estimated from the docking studies (vide supra). […] Intriguingly, the relatively low ΔH A1 is in line with groove binding.^[ [48] ^]
# Buffers employed in the experiments were 50 mM NaCl and 25 mM MOPS (adjusted to pH 7 with NaOH) and 5 mM NaCl and 25 mM MOPS (adjusted to pH 7 with NaOH). Solutions of DNA were prepared by diluting the DNA stock solutions (see UV‐visible titrations) as required. Complex solutions were prepared by dissolving 5 mg of the complex in 5 mL of buffer, then filtered through a 0.22 µm PES filter to ensure uniform solutions for ITC titration. Concentrations of solutions of complexes and of DNA were determined using UV‐visible spectroscopy. Calorimetric titrations were carried out at 25 °C on a MicroCal PEAQ‐ITC microcalorimeter (Malvern Instruments Ltd., Worcestershire, UK). The instrument was operated by applying a reference power of 10 μcal/s in high‐feedback mode, stirring the sample cell contents at 750 rpm, with a pre‐injection initial delay of 60 s. Solutions of complexes were loaded into the calorimeter injection syringe and DNA solutions were loaded into the sample cell. All experiments involved an initial injection of 0.4 µL in 0.8 s followed by 18 further injections of 2.0 µL in 4.0 s per injection into the calorimeter sample cell. Injections were spaced by at least 90 s to allow full recovery of the baseline. Raw data were treated using MicroCal PEAQ‐ITC Analysis Software (1.41) to generate both integrated heat effects per injection (ΔQ) and molar heat effects per injection (ΔH). Further data analysis was carried out using I2CITC.^[ [45], [47] ^]
# [2] = Solubility limits in buffer from saturated solutions; assay type: physicochemical
# Description: We next estimated the solubility limits of the complexes in buffer (25 mM MOPS, pH 7.0, 50 mM NaCl) from saturated solutions, using the molar absorption coefficients in Table S4 (see also Figures S14–18). […] These values mirror the trend predicted (via logP^[ [39] ^]) for the relative hydrophobicities of the cyclometalating ligands, which is ultimately controlled by the ligand substituent (H vs Me vs OMe vs Cl vs OCF3).
# fish sperm DNA (FSDNA) = assay: UV-visible titrations with fish sperm DNA, multiple independent binding sites (MIS) model; details: 25 mM MOPS, 50 mM NaCl, pH 7.0, 25 °C; for K (apparent DNA-binding affinity): association constant
# Description: We then studied the interactions of the complexes with double‐stranded DNA using UV‐visible titrations. Briefly, solutions of 44.14, 31.52, 35.17, 37.55, and 29.62 µM for the five complexes [Ir(L1‐5)2(en)]Cl, respectively, were titrated (in duplicate) with fish sperm DNA (FSDNA) at 25 °C (Figure 7 and Figures S19–22). The interactions between these complexes and DNA turned out not to involve a single type of binding site (vide infra). Nevertheless, the data from the UV‐visible titrations were provisionally analyzed globally using the multiple independent binding sites (MIS) model to determine apparent binding affinities and apparent binding site sizes (Table 4).
# All solutions were prepared by dissolving solids in a buffer with stirring, then filtration through a 0.22 µm PES filter to remove solid particles and ensure uniform, saturated solutions before titration. Concentrations were determined using extinction coefficients. MOPS buffer was prepared by dissolving MOPS (3‐(N‐morpholino)propanesulfonic acid, NaCl (all obtained from Fisher and used as supplied) in deionized water (Elga Purelab Flex), adjusting the pH to 7.0 using a NaOH solution (pH of the buffer was determined using a Hanna Instruments pH211 microprocessor pH meter with a Bioblock Scientific pH probe) and making up the solution to 0.5 liter. A stock solution of fish sperm DNA was prepared by dissolving approximately 0.1 g of fish sperm DNA in 10 mL of the buffer. The resulting solution was dialyzed (3.5 kDa MWCO, Visking, Medicell International Ltd) against 0.5 liters of buffer. Following dialysis, the DNA concentration was determined using UV‐visible spectroscopy using a molar absorption coefficient ε260 nm = 12 800 M^−1 cm^−1.^[ [37] ^] Spectra and titrations were plotted in OriginLab Origin 2019b. The titration data were analyzed globally for each complex using an in‐house written version of the multiple independent binding sites model which also explicitly takes changing ligand concentrations into account.^[ [49] ^]
# FSDNA [3] = assay: Steady-state and time-resolved luminescence in absence and presence of FSDNA; parameters: species or system fish; details: for luminescence intensity enhancement following the addition of DNA: λex = 410 nm, 25 mM MOPS, pH 7.0, 50 mM NaCl, uncorrected for dilution; for increase (lifetime) on DNA binding: time-resolved luminescence, with vs without FSDNA
# Description: Finally, the influence of DNA binding on the luminescence properties of the complexes was investigated. Steady‐state fluorescence spectra (using λ ex = 410 nm) were recorded both in the absence and presence of FSDNA, using a buffer of 25 mM MOPS, pH 7.0, and 50 mM NaCl. First, the appearance and shape of the emission bands (Figure S26) were not influenced by binding to DNA; the position of the emission maxima and the peak shape were generally retained upon the addition of DNA. […] The time‐resolved luminescence measurements support the inhibition of excited state quenching processes leading to the observed increase in integrated intensity.
# All reactions were performed with the use of a vacuum line and Schlenk techniques. Reagents were commercial grade and were used without further purification. ^1H, ^19F, and ^13C NMR spectra were recorded on a Bruker Avance dpx 500 MHz spectrometer and were recorded on d^6‐DMSO solutions. ^1H, ^13C{^1H} NMR chemical shifts (δ) were determined relative to internal tetramethylsilane, Si(CH3)4 and are given in ppm. Mass spectra were obtained by the staff at Cardiff University using a Waters Xevo G2‐XS QTof spectrometer. All photophysical data was obtained on a JobinYvon‐Horiba Fluorolog‐3 spectrometer fitted with a JY TBX picosecond photodetection module. The pulsed source was a Nano‐LED configured for 295 nm output operating at 1 MHz. Luminescence lifetime profiles were obtained using the JobinYvon–Horiba FluoroHub single photon counting module and the data fits yielded the lifetime values using DAS6 deconvolution software. IR spectra were recorded on an ATR‐equipped Shimadzu IRAffinity‐1 spectrophotometer. UV‐vis data were recorded as solutions on a Perkin Elmer Lamda20 spectrophotometer. The pH values of aqueous solutions were determined using a Hanna Instruments pH211 microprocessor pH meter with a Bioblock Scientific pH electrode.
# [4] = ITC dilution experiments (self-aggregation); assay type: physicochemical
# Text: To explore whether multiple binding modes are indeed present for these complexes interacting with DNA, we turned to isothermal titration calorimetry (ITC). ITC typically involves titrating a relatively concentrated solution of the binder into a more dilute solution of DNA (instead of titrating a relatively concentrated DNA solution into a more dilute solution of the binder). Therefore, the possible self‐aggregation of the DNA binders was explored through dilution experiments in which solutions of a complex at representative concentrations in buffer (25 mM MOPS, pH 7.0, 50 mM NaCl) were diluted into matched buffer in the calorimeter cell.
# Further experiments at different complex concentrations confirm this sigmoidal behavior of the dilution heat effects around a critical concentration. […] Nevertheless, self‐assembled nanoparticles of organic fluorophores with micromolar CACs have been reported.^[ [43] ^]
# CACs are typical for cooperative aggregation processes, such as micellization, and we therefore interpret the data as [Ir(L1)2(en)]Cl cooperatively self‐aggregating in these buffer conditions (25 mM MOPS, pH 7.0, 50 mM NaCl). While it is known that the determination of aggregation numbers from titration calorimetry data is challenging, other thermodynamic parameters are readily available. […] The molar enthalpy for self‐aggregation of −92 kJ mol^−1 (difference between average pre‐ and post‐CAC heat effects) indicates a highly exothermic self‐aggregation process accompanied by a T×Δ°S aggregation of […]. […]
# Buffers employed in the experiments were 50 mM NaCl and 25 mM MOPS (adjusted to pH 7 with NaOH) and 5 mM NaCl and 25 mM MOPS (adjusted to pH 7 with NaOH). […] Concentrations of solutions of complexes and of DNA were determined using UV‐visible spectroscopy. […]
# [5] = buffer 25 mM MOPS, pH 7.0, 50 mM NaCl, saturated solutions, estimated via molar absorption coefficients
Compound,K A1 (FSDNA [1]),n A1 (FSDNA [1]) [bp^−1],K B1 (FSDNA [1]),n B1 (FSDNA [1]),"Solubility limit [2, 5] [µM]",binding site size (apparent) (fish sperm DNA (FSDNA)) [base pairs],K (apparent DNA-binding affinity) (fish sperm DNA (FSDNA)),luminescence intensity enhancement following the addition of DNA (FSDNA [3]),increase (lifetime) on DNA binding (FSDNA [3]) [%],Solubility limit ([2]; pH 7) [µM],"critical aggregation concentration (CAC) ([4]; 25 mM MOPS, pH 7.0, 50 mM NaCl, 25 °C) [µM]",molar enthalpy for self‐aggregation ([4]; difference between average pre‐ and post‐CAC heat effects) [kcal/mol],"equilibrium constant for aggregation ([4]; from CAC, 25 mM MOPS, pH 7.0, 50 mM NaCl) [M⁻¹]"
Cc1c[c-]c(-c2nc3ccccc3s2)cc1.Cc1c[c-]c(-c2nc3ccccc3s2)cc1.NCCN.[Cl-].[Ir+3] [[Ir(L2)2(en)]Cl],132 10^6 M^−1,0.03,0.41 10^6 M^−1,0.57,327,0.64 ± 0.05,4.2 ± 3.7 10^5 M^−1,,,,,,
COc1c[c-]c(-c2nc3ccccc3s2)cc1.COc1c[c-]c(-c2nc3ccccc3s2)cc1.NCCN.[Cl-].[Ir+3] [[Ir(L3)2(en)]Cl],19 10^6 M^−1,0.07,0.13 10^6 M^−1,0.31,739,0.76 ± 0.04,4.6 ± 2.3 10^5 M^−1,40–65%,,,,,
Clc1c[c-]c(-c2nc3ccccc3s2)cc1.Clc1c[c-]c(-c2nc3ccccc3s2)cc1.NCCN.[Cl-].[Ir+3] [[Ir(L4)2(en)]Cl],,,,,100,0.43 ± 0.19,0.8 ± 0.7 10^5 M^−1,,75,,,,
FC(F)(F)Oc1c[c-]c(-c2nc3ccccc3s2)cc1.FC(F)(F)Oc1c[c-]c(-c2nc3ccccc3s2)cc1.NCCN.[Cl-].[Ir+3] [[Ir(L5)2(en)]Cl],,,,,75,0.92 ± 0.18,0.6 ± 0.3 10^5 M^−1,40–65%,98,,,,
NCCN.[Cl-].[Ir+3].[c-]1ccccc1-c1nc2ccccc2s1.[c-]1ccccc1-c1nc2ccccc2s1 [[Ir(L1)2(en)]Cl],239 10^6 M^−1,0.06,0.14 10^6 M^−1,0.46,,0.70 ± 0.15,4.3 ± 5.3 10^5 M^−1,,,978,2.1,-22,480000

# — article PMC12117180, “DNA‐Binding Properties of Non‐Intercalating Water‐Soluble Organometallic Ir(III) Luminophores” (Chemistry (Weinheim an Der Bergstrasse, Germany), 2025)
